From patent publication US20230117680A1, “CYCLOPHILIN D INHIBITORS AND USES THEREOF” (The Broad Institute, Inc., priority 2019, published 2023)
pIC50: −log10 of the molar value. Entries after “also recorded” stand apart in the source; their conditions may differ.

How the values were obtained:
mPTP = test: inhibition of mPTP in in vitro cell culture; type: cell-based; conditions: result in words
Experimental: As disclosed herein, macrocycle inhibitors of cyclophilin D have been discovered and designed with previously unparalleled specificity. An active site binder displaying weak inhibition (IC50=15 uM) and no selectivity profile was initially optimized to 200 nM. CypD specificity was designed by building into S2 pocket residues. Bi-phenyl para-carboxylates provided the greatest level of potency (<2-30 nM) and selectivity for CypD. Co-crystal structures of these macrocycles bound to CypD were solved, and a dual binding mode was determined between active site and S2 pocket. MD simulations of co-crystal structures were conducted to observe dynamic interactions of carboxylate with S2 pocket. Initial proof of target engagement was determined via inhibition of the mPTP.

CypD = CypD (Homo sapiens, UniProt P30405); test: chymotrypsin coupled PPIase assay (Suc-AAPF-AMC substrate), CypD inhibition; type: biochemical
Chain of CypD (P30405 30-207): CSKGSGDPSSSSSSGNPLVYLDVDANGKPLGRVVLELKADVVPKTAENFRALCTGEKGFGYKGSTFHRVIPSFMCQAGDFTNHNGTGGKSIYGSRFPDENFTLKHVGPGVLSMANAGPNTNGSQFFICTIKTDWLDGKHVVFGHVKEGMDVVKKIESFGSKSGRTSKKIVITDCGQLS
Source text: (§1) The selectivity of a compound described herein in inhibiting the activity of a first cyclophilin (e.g., CypD) over a second cyclophilin may be measured by the quotient of the IC50 value of the compound in inhibiting the activity of the second cyclophilin over the IC50 value of the compound in inhibiting the activity of the first cyclophilin. The selectivity of a compound described herein in modulating the activity of a first cyclophilin over a second cyclophilin may also be measured by the quotient of the Kd value of an adduct of the compound and the second cyclophilin over the Kd value of an adduct of the compound and the first cyclophilin (e.g., CypD). […] In certain embodiments, selectivity for inhibiting a first cyclophilin over other cyclophilins is measured by Surface Plasmon Resonance (SPR) assays as disclosed in the Examples.
(§2) Following the synthesis of the indicated library members, in vitro inhibition (IC50) assays of these hits were conducted to obtain IC50 inhibitory data. For the IC50 assays, a chymotrypsin coupled PPIase assay using Suc-AAPF-AMC as the peptide substrate was used, whereby isomerization of a peptide substrate Suc-AAPF-AMC from the cis to trans conformation allowed for proteolysis via excess a-chymotrypsin, releasing the C-terminal coumarin fluorophore.

[1] = system: 10 other cyclophilins with reported prolyl isomerase activity; test: cyclophilin specificity screen: CypD against the other cyclophilins; type: biochemical; conditions: result in words
Source text: as §1, §2
Subsequently, to determine if the compounds could both access the S2 pocket and display CypD specificity, JOMBtrans and compound 49 were screened against the 10 other cyclophilins with reported prolyl isomerase activity. […] Co-crystal structures of JOMBtrans and 49 were solved with CypD.

[2] = system: mPTP in isolated mice kidney mitochondria; test: inhibition of mPTP in isolated mitochondria (tolerated Ca2+ pulses before full mPTP opening); conditions: result in words
Experimental: In isolated mice kidney mitochondria, the maximum number of Ca^2+ pulses that could be tolerated before full mPTP opening was measured (see FIG. 24).

Row | pIC50 (CypD; read-out: potency for CypD) | potency for CypD (in words) (CypD; result in words) | SMILES | rescue of mPTP in cell culture (mPTP) | specificity / selectivity profile for CypD (in words) [1] | number of tolerated Ca2+ pulses before full mPTP opening [2]
1 | 8.60 | high potency | NCCOCCNC(=O)[C@@H]1CCNC(=O)/C=C/C(=O)N2CCC[C@](Cc3ccccc3)(C2)C(=O)N[C@@H](Cc2ccc(-c3ccc(CCC(=O)O)cc3)cc2)C(=O)NCc2ccccc2CC(=O)N1 [A-81] | appears to not rescue mPTP | high specificity; also recorded: drastic preference for inhibition of CypD | extend Ca^2+ loading
2 | – | – | CC(=O)c1ccc(-c2ccc(C[C@@H]3NC(=O)[C@]4(Cc5ccccc5)CCCN(C4)C(=O)/C=C/C(=O)NCC[C@@H](C(=O)NCCOCCN)NC(=O)Cc4ccccc4CNC3=O)cc2)cc1 [A-22] | minimal rescue | – | extend Ca^2+ loading
